In patent US5049654A, “Calcitonin gene related peptide derivatives” (Toyo Jozo Kabushiki Kaisha, priority 1986, dated 1991):
Positions of bridges follow the written chain, without caps; N, C: chain ends. Non-standard residues stand in square brackets, D forms with d. Residues, ends and D or L forms follow the SMILES beside them. Asu = N[C@@H](CCCCCC(=O)O)C(=O)O; Mpa = O=C(O)CCS

What was measured:
[1] = test system: Wistar rats; experiment: Serum calcium reducing activity, i.v. into the tail vein of Wistar rats, atomic adsorption spectrophotometry; type: in vivo; conditions: rat; for reduction of serum calcium concentration as compared with control group: vs dissolving medium group
Procedure: (§1) Desalanyl-deamino-c-CGRP, desalanyl-[Asu^2,7 -c-CGRP and desalanyl-[Asp^3, Asu^2,7 ]-c-CGRP (each 80 μg), and c-CGRP (Japan. Patent Unexam. Publ. No. 61-273581) and known h-CGRP (each 80 μg for control group) dissolved in citrate buffer, pH 6.5, containing 0.1% bovine serum albumin (hereinafter designated dissolving medium) (1 ml) were administered intravenously into the tail vein of Wistar rats, body weight 80-90 g, 5-6 rats in one group, at 20 or 80 μg/kg. After 30 and 60 mins. of administration, blood samples were collected from the abdominal descending aorta. The serum calcium concentration was measured by atomic adsorption spectrophotometry. Serum phosphate was measured by a method according to Goldenberg et al. [Clin. Chem., 12: 872-882 (1966)].

[2] = Physical properties: pI; type: physicochemical
[3] = test system: Wistar rats; experiment: Serum phosphate reducing activity, i.v. into the tail vein of Wistar rats, method of Goldenberg et al.; type: in vivo; conditions: rat; for reduction of serum phosphate concentration as compared with control group: vs dissolving medium group
Procedure: as §1

[4] = test peptide 20 μg/kg vs c-CGRP 20 μg/kg
[5] = test peptide 20 μg/kg vs h-CGRP 80 μg/kg
[6] = test peptide 80 μg/kg vs c-CGRP at equivalent dose
[7] = test peptide 80 μg/kg vs h-CGRP 80 μg/kg

pI [2]	Compound	duration of serum calcium reducing activity ([1]; 20 μg/kg i.v.) [h]	reduction of serum calcium concentration as compared with control group ([1]; 20 μg/kg i.v., FIG. 1)	duration of serum calcium reducing activity ([1]; 80 μg/kg i.v.)	reduction of serum calcium concentration as compared with control group ([1]; 80 μg/kg i.v., FIGS. 1 and 3)	serum calcium reducing activity compared with c-CGRP [1, 4]	serum calcium reducing activity compared with h-CGRP [1, 5]	serum calcium reducing activity compared with c-CGRP [1, 6]	serum calcium reducing activity compared with h-CGRP [1, 7]	duration of serum phosphate reducing activity ([3]; 20 μg/kg i.v.) [h]	reduction of serum phosphate concentration as compared with control group ([3]; 20 μg/kg i.v., FIG. 2)	duration of serum phosphate reducing activity ([3]; 80 μg/kg i.v.)	reduction of serum phosphate concentration as compared with control group ([3]; 80 μg/kg i.v., FIGS. 2 and 4)	serum phosphate reducing activity compared with c-CGRP [3, 4]	serum phosphate reducing activity compared with h-CGRP [3, 5]	serum phosphate reducing activity compared with c-CGRP [3, 6]	serum phosphate reducing activity compared with h-CGRP [3, 7]
more than 10.25	CC(C)C[C@H](NC(=O)[C@H](CCCNC(=N)N)NC(=O)[C@H](Cc1c[nH]cn1)NC(=O)[C@@H](NC(=O)[C@@H](NC(=O)[C@@H]1CSSCCC(=O)N[C@@H](CC(N)=O)C(=O)N[C@@H]([C@@H](C)O)C(=O)N[C@@H](C)C(=O)N[C@@H]([C@@H](C)O)C(=O)N1)C(C)C)[C@@H](C)O)C(=O)N[C@@H](C)C(=O)N[C@@H](CC(=O)O)C(=O)N[C@@H](Cc1ccccc1)C(=O)N[C@@H](CC(C)C)C(=O)N[C@@H](CO)C(=O)N[C@@H](CCCNC(=N)N)C(=O)N[C@@H](CO)C(=O)NCC(=O)NCC(=O)N[C@H](C(=O)NCC(=O)N[C@@H](CCCCN)C(=O)N[C@@H](CC(N)=O)C(=O)N[C@@H](CC(N)=O)C(=O)N[C@@H](Cc1ccccc1)C(=O)N[C@H](C(=O)N1CCC[C@H]1C(=O)N[C@H](C(=O)N[C@@H](CC(N)=O)C(=O)N[C@H](C(=O)NCC(=O)N[C@@H](CO)C(=O)N[C@@H](CCCCN)C(=O)N[C@@H](C)C(=O)N[C@@H](Cc1ccccc1)C(N)=O)C(C)C)[C@@H](C)O)C(C)C)C(C)C [desalanyl-deamino-c-CGRP] ([Mpa]NTATCVTHRLADFLSRSGGVGKNNFVPTNVGSKAF-NH2; disulfide 1-6)	≥ 2	more than 30%	≥ 2 h	more than 30%	significantly strong as compared with c-CGRP	stronger than those of h-CGRP administered in quadruple the amounts	stronger	stronger than those of h-CGRP	≥ 2	more than 30%	≥ 2 h	more than 30%	significantly strong as compared with c-CGRP	stronger than those of h-CGRP administered in quadruple the amounts	stronger	stronger than those of h-CGRP
more than 10.25	CC(C)C[C@H](NC(=O)[C@H](CCCNC(=N)N)NC(=O)[C@H](Cc1c[nH]cn1)NC(=O)[C@@H](NC(=O)[C@@H](NC(=O)[C@@H]1CCCCCC(=O)N[C@@H](CC(=O)O)C(=O)N[C@@H]([C@@H](C)O)C(=O)N[C@@H](C)C(=O)N[C@@H]([C@@H](C)O)C(=O)N1)C(C)C)[C@@H](C)O)C(=O)N[C@@H](C)C(=O)N[C@@H](CC(=O)O)C(=O)N[C@@H](Cc1ccccc1)C(=O)N[C@@H](CC(C)C)C(=O)N[C@@H](CO)C(=O)N[C@@H](CCCNC(=N)N)C(=O)N[C@@H](CO)C(=O)NCC(=O)NCC(=O)N[C@H](C(=O)NCC(=O)N[C@@H](CCCCN)C(=O)N[C@@H](CC(N)=O)C(=O)N[C@@H](CC(N)=O)C(=O)N[C@@H](Cc1ccccc1)C(=O)N[C@H](C(=O)N1CCC[C@H]1C(=O)N[C@H](C(=O)N[C@@H](CC(N)=O)C(=O)N[C@H](C(=O)NCC(=O)N[C@@H](CO)C(=O)N[C@@H](CCCCN)C(=O)N[C@@H](C)C(=O)N[C@@H](Cc1ccccc1)C(N)=O)C(C)C)[C@@H](C)O)C(C)C)C(C)C [desalanyl-[Asp^3,Asu^2,7]-c-CGRP] (DTAT[Asu]VTHRLADFLSRSGGVGKNNFVPTNVGSKAF-NH2; lactam N-5)			more than 2 hours	more than 30%			significantly strong as compared with c-CGRP	stronger than that of h-CGRP			more than 2 hours	more than 30%			significantly strong as compared with c-CGRP	stronger than that of h-CGRP
more than 10.25	CC(C)C[C@H](NC(=O)[C@H](CCCNC(=N)N)NC(=O)[C@H](Cc1c[nH]cn1)NC(=O)[C@@H](NC(=O)[C@@H](NC(=O)[C@@H]1CCCCCC(=O)N[C@@H](CC(N)=O)C(=O)N[C@@H]([C@@H](C)O)C(=O)N[C@@H](C)C(=O)N[C@@H]([C@@H](C)O)C(=O)N1)C(C)C)[C@@H](C)O)C(=O)N[C@@H](C)C(=O)N[C@@H](CC(=O)O)C(=O)N[C@@H](Cc1ccccc1)C(=O)N[C@@H](CC(C)C)C(=O)N[C@@H](CO)C(=O)N[C@@H](CCCNC(=N)N)C(=O)N[C@@H](CO)C(=O)NCC(=O)NCC(=O)N[C@H](C(=O)NCC(=O)N[C@@H](CCCCN)C(=O)N[C@@H](CC(N)=O)C(=O)N[C@@H](CC(N)=O)C(=O)N[C@@H](Cc1ccccc1)C(=O)N[C@H](C(=O)N1CCC[C@H]1C(=O)N[C@H](C(=O)N[C@@H](CC(N)=O)C(=O)N[C@H](C(=O)NCC(=O)N[C@@H](CO)C(=O)N[C@@H](CCCCN)C(=O)N[C@@H](C)C(=O)N[C@@H](Cc1ccccc1)C(N)=O)C(C)C)[C@@H](C)O)C(C)C)C(C)C [desalanyl-[Asu^2,7]-c-CGRP] (NTAT[Asu]VTHRLADFLSRSGGVGKNNFVPTNVGSKAF-NH2; lactam N-5)			more than 2 hours	more than 30%			significantly strong as compared with c-CGRP	stronger than that of h-CGRP			more than 2 hours	more than 30%			significantly strong as compared with c-CGRP	stronger than that of h-CGRP
